# Reference: patent US8722687B2, “Imidazo [1,2-A]pyridine derivatives as FGFR kinase inhibitors for use in therapy” (Astex Therapeutics Ltd, priority 2009, dated 2014)
# Columns and labels:
# [1] = biological target: T1, FGFR3 (Homo sapiens, UniProt P22607); assay: FGFR3 in vitro kinase inhibitory activity assay; format: biochemical; details: read-out: FGFR3 IC50(μM) or % I
# T1 construct: purchased Upstate
# Method: (§1) FGFR3, VEGFR2 and PDGFR in vitro Kinase Inhibitory Activity Assays
# (§2) Enzymes (from Upstate), prepared at 2× final concentration, were incubated with test compounds, biotinylated Flt3 substrate (biotin-VASSDNEYFYVDF) (Cell Signalling Technology Inc.) and ATP in the appropriate assay buffer (Table 1). The reaction was allowed to proceed for 3 hours (FGFR3), 1 hour (VEGFR2, PDGFR-beta) at room temperature on a plate shaker at 700 rpm before being stopped with 35 mM EDTA, pH 8 (FGFR3, VEGFR2) or 55 mM EDTA, pH 8 (PDGFR-beta). 5× detection mix/50 mM HEPES pH 7.5, 0.1% BSA, 11.34 nM Eu-anti-pY (PY20) (PerkinElmer) 74 nM SA-XL665 (Cisbio) for FGFR3, 50 mM HEPES, pH 7.5, 0.1% BSA, 11.34 nM Eu-anti-pY (PY20), 187.5 nM SA-XL665 for VEGFR2 and 50 mM HEPES, pH 7.5, 0.1% BSA, 11.34 nM Eu-anti-pY (PT66) (PerkinElmer), 375 nM SA-XL665 (Cisbio) for PDGFR-beta) was then added to each well and the plate sealed and incubated at room temperature for one hour on a plate shaker at 700 rpm. The plate was then read on a Packard Fusion plate reader or a BMG Pherastar both in TRF mode.
# [2] = biological target: T2, VEGFR2 (Homo sapiens, UniProt P35968); assay: VEGFR2 in vitro kinase inhibitory activity assay; format: biochemical; details: read-out: VEGFR2 IC50(μM) or % I
# T2 construct: purchased Upstate
# T2 sequence (P35968 20-1356): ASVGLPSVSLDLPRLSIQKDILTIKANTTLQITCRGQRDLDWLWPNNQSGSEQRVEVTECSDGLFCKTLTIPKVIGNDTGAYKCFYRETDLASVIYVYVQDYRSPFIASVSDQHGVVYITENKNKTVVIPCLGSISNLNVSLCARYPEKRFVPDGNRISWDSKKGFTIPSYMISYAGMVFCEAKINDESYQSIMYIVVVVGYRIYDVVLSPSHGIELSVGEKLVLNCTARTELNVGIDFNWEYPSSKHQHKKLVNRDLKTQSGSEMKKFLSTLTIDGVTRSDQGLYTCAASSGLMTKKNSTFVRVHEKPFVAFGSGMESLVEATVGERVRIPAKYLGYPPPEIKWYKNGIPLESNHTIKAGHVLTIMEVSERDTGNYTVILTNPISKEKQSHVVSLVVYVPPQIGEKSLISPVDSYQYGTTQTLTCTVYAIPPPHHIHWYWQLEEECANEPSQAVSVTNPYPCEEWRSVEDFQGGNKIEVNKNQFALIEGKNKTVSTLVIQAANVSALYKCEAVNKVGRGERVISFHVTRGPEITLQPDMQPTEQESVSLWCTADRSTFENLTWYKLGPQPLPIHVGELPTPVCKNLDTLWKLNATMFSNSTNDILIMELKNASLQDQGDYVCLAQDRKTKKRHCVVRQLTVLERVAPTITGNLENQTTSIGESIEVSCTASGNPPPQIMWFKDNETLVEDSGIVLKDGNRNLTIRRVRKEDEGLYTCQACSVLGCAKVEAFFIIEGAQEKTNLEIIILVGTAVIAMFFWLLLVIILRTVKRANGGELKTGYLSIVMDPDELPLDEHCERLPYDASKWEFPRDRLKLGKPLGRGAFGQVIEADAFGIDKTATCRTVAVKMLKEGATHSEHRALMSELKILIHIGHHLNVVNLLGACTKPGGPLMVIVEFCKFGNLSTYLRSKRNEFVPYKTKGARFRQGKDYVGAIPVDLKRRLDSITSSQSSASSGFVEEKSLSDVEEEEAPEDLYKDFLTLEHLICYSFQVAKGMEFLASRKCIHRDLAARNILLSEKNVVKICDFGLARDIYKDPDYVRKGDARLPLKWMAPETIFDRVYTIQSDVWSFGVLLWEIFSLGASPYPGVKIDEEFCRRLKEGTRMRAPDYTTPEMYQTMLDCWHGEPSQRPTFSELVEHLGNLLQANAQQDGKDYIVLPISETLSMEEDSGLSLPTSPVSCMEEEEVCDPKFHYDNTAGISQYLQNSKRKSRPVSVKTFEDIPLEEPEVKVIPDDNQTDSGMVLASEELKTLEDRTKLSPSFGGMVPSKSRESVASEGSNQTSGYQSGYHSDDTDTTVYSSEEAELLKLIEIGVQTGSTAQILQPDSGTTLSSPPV
# Method: as §1, §2
# Kinase Assay buffers were:
# B: 50 mM HEPES pH 7.5, 6 mM MnCl2, 1 mM DTT, 0.01% TritonX-100, 0.1 mM Sodium orthovanadate
# [3] = test system: human prostate cancer PC3 cells; assay: EB1 cellular assay (Eb1 Comet assay, microtubule disruption); format: cell-based; details: PC-3, lowest active concentration: Eb1 foci absent in at least 50% of treated PC3 cells, 1 hour, read-out: Eb1 LAC
# Method: The Eb1 Comet assay relies on the detection of the Eb1 protein at the plus end of polymerizing microtubules (Mimori-Kiyosue, 2000) using indirect immunofluorescence. Disruption of microtubule dynamics through de-polymerization or stabilization results in a de-localization of Eb1 from the growing microtubule ends and this is visualized by the disappearance of Eb1 containing cytoplasmic foci.
# Briefly, human prostate cancer PC3 cells obtained from the American Type Culture Collection were grown in 96-well plates (Greiner, cat. no. 655090) in HAM's F12 medium as recommended by the provider (ATCC). The cells were treated for 1 hour at 37° C. with compounds dissolved in DMSO (0.6% final DMSO concentration). The culture medium was then removed by aspiration and the cells were fixed by adding cold methanol (−20° C.). After a 15 minutes incubation at −20° C., the cells were washed twice with DPBS (Gibco) containing 0.5% Triton X-100. Mouse Eb1 antibody (BD Transduction Laboratories, cat. no. 610534) was added to the cells (1/250 dilution in DPBS containing 1% BSA) and incubated overnight at room temperature. The antibody was subsequently removed and the cells washed twice with DPBS, 0.5% Triton X-100. Secondary goat anti-mouse antibody conjugated to Alexa 488 fluorescent dye (Molecular Probes) was added at a 1/500 dilution in DPBS, 1% BSA and incubated for 1 hour at 37° C. The cells were washed twice with DPBS, 0.5% Triton X-100 and then DPBS containing 0.5% Triton X-100 and 1/5000 Hoechst 33342 (Molecular Probes) was added. Microscopy based Eb1 foci visualization was carried out using an IN Cell Analyser 1000 (Amersham Biosciences) using a 20× objective. Compound dependent microtubule disruption was visually determined by the disappearance in Eb1 foci. The lowest active concentration (LAC) was determined as the concentration where Eb1 foci were absent in at least 50% of the treated cells. Herein the effects of test compounds are expressed as pLAC (the negative log value of the LAC-value)
# T1 sequence (P22607 23-806): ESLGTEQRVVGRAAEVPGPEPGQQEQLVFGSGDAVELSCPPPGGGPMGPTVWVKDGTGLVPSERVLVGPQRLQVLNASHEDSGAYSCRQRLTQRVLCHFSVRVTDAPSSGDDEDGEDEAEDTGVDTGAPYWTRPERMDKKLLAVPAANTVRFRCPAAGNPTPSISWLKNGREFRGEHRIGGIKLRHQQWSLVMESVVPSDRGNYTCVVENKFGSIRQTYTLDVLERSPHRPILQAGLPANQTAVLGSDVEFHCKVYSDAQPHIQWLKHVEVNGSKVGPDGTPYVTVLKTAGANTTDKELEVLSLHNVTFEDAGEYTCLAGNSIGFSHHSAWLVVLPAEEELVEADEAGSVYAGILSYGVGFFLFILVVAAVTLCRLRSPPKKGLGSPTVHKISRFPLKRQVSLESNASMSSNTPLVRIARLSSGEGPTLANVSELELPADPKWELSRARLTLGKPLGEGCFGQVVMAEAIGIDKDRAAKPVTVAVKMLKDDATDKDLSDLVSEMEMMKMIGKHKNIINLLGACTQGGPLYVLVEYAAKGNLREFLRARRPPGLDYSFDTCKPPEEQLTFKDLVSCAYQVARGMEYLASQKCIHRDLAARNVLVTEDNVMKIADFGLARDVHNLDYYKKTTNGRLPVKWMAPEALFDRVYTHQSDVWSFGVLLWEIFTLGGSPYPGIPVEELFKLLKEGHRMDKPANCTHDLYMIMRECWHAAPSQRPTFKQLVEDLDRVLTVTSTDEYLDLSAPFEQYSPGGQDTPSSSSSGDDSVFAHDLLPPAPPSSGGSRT
Structure (SMILES),IC50 [1],IC50 [2],minimal effective concentration [3]
"Cc1nc(-c2ccn3c(-c4cc(NC(=O)NCC(F)(F)F)cc(OC(C)C)c4)cnc3c2)ccc1F [Compound F-3, 1-{3-[7-(5-Fluoro-6-methyl-pyridin-2-yl)-imidazo[1,2-a]pyridin-3-yl]-5-isopropoxy-phenyl}-3-(2,2,2-trifluoro-ethyl)-urea]",0.0087 µM,0.48 µM,> 10 µM
"CCOc1cc(NC(=O)NCC(F)(F)F)cc(-c2cnc3cc(-c4ccnc(C(F)(F)F)n4)ccn23)c1 [Compound F-16, 1-{3-Ethoxy-5-[7-(2-trifluoromethyl-pyrimidin-4-yl)-imidazo[1,2-a]pyridin-3-yl]-phenyl}-3-(2,2,2-trifluoro-ethyl)-urea]",0.027 µM,0.4 µM,> 10 µM
"CCOc1cc(NC(=O)NCC(F)(F)F)cc(-c2cnc3cc(-c4nnc(C)o4)ccn23)c1 [Compound F-15, 1-{3-Ethoxy-5-[7-(5-methyl-[1,3,4]oxadiazol-2-yl)-imidazo[1,2-a]pyridin-3-yl]-phenyl}-3-(2,2,2-trifluoro-ethyl)-urea]",0.025 µM,0.34 µM,10 µM
